Results taken from PMC3726001 (Bioorganic & medicinal chemistry letters, 2010).
Values after ≈ are worked out from the molar mass of the structure shown.

Assays:
[1] = target: [3H]DTBZ-binding site on VMAT2 (Rattus norvegicus, UniProt Q01827); test: [3H]DTBZ binding to VMAT2
Aqueous solubility = type: physicochemical
VMAT2 = VMAT2 (Rattus norvegicus, UniProt Q01827); test: Inhibition of [3H]DA uptake into synaptic vesicles; type: biochemical
dogs = conditions: cited from earlier work
guinea pigs = conditions: cited from earlier work
[2] = tested on: (+)-methamphetamine (METH) self-administration; conditions: rats; effect not surmounted by METH; cited from earlier work
[3] = tested on: (+)-METH-induced dopaminergic toxicity; conditions: rats; repeated administration prior to (+)-METH self-administration; cited from earlier work

Chain of [3H]DTBZ-binding site on VMAT2 (Q01827 whole entry): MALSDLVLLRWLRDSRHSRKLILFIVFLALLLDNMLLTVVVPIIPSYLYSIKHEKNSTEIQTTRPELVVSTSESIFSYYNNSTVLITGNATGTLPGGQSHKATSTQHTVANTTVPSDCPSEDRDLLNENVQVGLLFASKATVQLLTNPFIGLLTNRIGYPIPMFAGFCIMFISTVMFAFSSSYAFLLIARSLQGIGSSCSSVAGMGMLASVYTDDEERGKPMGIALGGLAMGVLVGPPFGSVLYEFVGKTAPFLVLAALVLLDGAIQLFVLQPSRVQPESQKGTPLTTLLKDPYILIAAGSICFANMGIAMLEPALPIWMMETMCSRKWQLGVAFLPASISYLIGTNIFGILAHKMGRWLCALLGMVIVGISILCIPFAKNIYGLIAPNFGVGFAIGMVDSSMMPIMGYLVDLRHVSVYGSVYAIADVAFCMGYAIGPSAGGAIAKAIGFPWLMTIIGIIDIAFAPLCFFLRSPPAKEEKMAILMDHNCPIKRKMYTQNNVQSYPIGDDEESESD
Chain of VMAT2 (Q01827 whole entry): as above

For CN1[C@@H](CCc2c[nH]c3ccccc23)CCC[C@H]1CCc1c[nH]c2ccccc12 [compound 24], the “affinity for the [3H]DTBZ binding site” value [1] was “greatly diminished affinity”.

For CN1[C@@H](CCc2cccnc2)CCC[C@H]1CCc1cccnc1 [compound 14], the “fold less potent than lobelane in binding to the [3H]DTBZ binding site” value ([1]; compared to lobelane) was “about 30 fold”.

With CN1[C@@H](CCc2ccc3ccccc3n2)CCC[C@H]1CCc1ccc2ccccc2n1.Cl [compound 22] the “water solubility characteristics compared to lobelane” value (Aqueous solubility) was “improved water solubility”, the “affinity for the [3H]DTBZ binding site” value [1] was “submicromolar affinity” and the “binding to the [3H]DTBZ binding site compared to lobelane” value (from here on “binding … compared to lobelane”) ([1]; compared to lobelane) was “almost as avidly as lobelane”. The “potency in inhibiting [3H]DA uptake compared to lobelane” value (VMAT2) was “equipotent with lobelane”.

In the case of CN1[C@@H](CCc2ccccc2)CCC[C@H]1CCc1ccccc1 [compound 1, N-methyl-cis-2,6-diphenethylpiperidine], the solubility (Aqueous solubility) is listed as 300 µg/mL (≈ 976 µM), the respiratory analeptic activity (dogs) is listed as “marked respiratory analeptic activity” and the “pharmacological action in guinea pigs” value (guinea pigs) is listed as “peripheral spasmolytic, ‘central stimulating’ action”.

For CN1[C@@H](CCc2ccncc2)CCC[C@H]1CCc1ccncc1 [compound 21], the “binding … compared to lobelane” value ([1]; compared to lobelane) was “marginally lower in binding affinity”.

With CN1[C@@H](CCc2ccnc3ccccc23)CCC[C@H]1CCc1ccnc2ccccc12.Cl [compound 23] the “water solubility characteristics compared to lobelane” value (Aqueous solubility) was “improved water solubility”, the “binding … compared to lobelane” value ([1]; compared to lobelane) was “almost as avidly as lobelane” and the “potency in inhibiting [3H]DA uptake compared to lobelane” value (VMAT2) was “equipotent with lobelane”.

In the case of CN1[C@@H](CC(=O)c2ccccc2)CCC[C@H]1C[C@H](O)c1ccccc1 [compound 2, lobeline], the “effect on (+)-METH self-administration” value [2] is listed as “inhibits” and the “effect on (+)-METH-induced dopaminergic toxicity” value [3] is listed as “prevents”.
